Data: the METLIN SMRT retention time set (Domingo-Almenara et al. 2019)

assay: gradient 5% acetonitrile 3 min, to 50% in 2 min, to 85% in 15 min, held 3 min, 100 µL/min; conditions: column: Zorbax Extend-C18 2.1 x 50 mm; eluents: water / acetonitrile, 0.1% formic acid
Procedure, shortened: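 Values are retention times taken from adduct peaks that software picked and an analyst inspected. The pure standards were run as mixtures of ~100 molecules on HPLC linked to a quadrupole time-of-flight mass spectrometer, in positive and negative ionization mode. A Zorbax Extend-C18 column (2.1 × 50 mm, 1.8 μm) was used at 100 μL/min with water and acetonitrile, each including 0.1% formic acid.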

Compound | RP-LC retention time [s]
COc1cc([C@@H]2c3cc4c(cc3[C@H](O)[C@@H](CO)[C@@H]2C(=O)N2CCOCC2)OCO4)cc(OC)c1OC | 632
CCCNC(=O)c1cc(N2CCCC2)n2nccc2n1 | 792
COc1cc(-c2noc(Cn3ncn4nc(-c5cccs5)cc4c3=O)n2)cc(OC)c1OC | 983
NC(=O)c1c(NC(=O)c2ccc(Br)s2)sc2c1CCCCC2 | 1040
CC(=O)Nc1nc(-c2ccc3c(c2)NC(=O)CO3)cs1 | 633
CCn1cc(CCNC(=O)C2CCCC2)c2cccnc21 | 654
CCc1nc(-c2csc(S(=O)(=O)N3CCC(C(=O)NC(C)C)CC3)c2)no1 | 812
CCCc1cc(N2CCN(C(=O)COc3ccccc3)CC2)nc2nncn12 | 640
COc1cccc(Cn2c(C(=O)N3CCC(C(=O)NCC4CCCCC4)CC3)cc3ccsc32)c1 | 1090
COc1cc(OC)cc(-c2nc(-c3cn(-c4cccc(F)c4)nn3)no2)c1 | 1090
NS(=O)(=O)c1ccc(-n2nc(C(F)(F)F)cc2-c2ccc(Cl)cc2)cc1 | 959
Cc1ccc(F)cc1S(=O)(=O)N1CCC(C2CCNC2)CC1 (centres undefined) | 651
CC(C)(C)c1csc(-c2csc(S(=O)(=O)NCc3ccc4c(c3)OCO4)c2)n1 | 1170
O=C(Nc1cc(F)cc(F)c1)Nc1cccc(-c2nccnc2N2CCOCC2)c1 | 940
c1ccc(COCCc2noc(C3CCCCN3)n2)cc1 (centres undefined) | 622
CCS(=O)(=O)c1nc2ccc(NS(=O)(=O)c3ccc(OC)c(Cl)c3)cc2s1 | 907
O=C(NCCC1=CCCCC1)C1CCCN(c2cnc3nccnc3c2)C1 (centres undefined) | 766
Cn1ncc2c(N3CCCCC3)nc(C(=O)N3CCN(c4ccccc4Cl)CC3)nc21 | 1030
Cn1nccc1-c1cccc(-c2noc(-c3ccc(C#N)cc3)n2)c1 | 1050
O=C(NCc1csc(-c2cccs2)n1)C1CCN(C(=O)c2cccc(F)c2)CC1 | 772
CCn1c(C)c(-c2nc(C3CC3)no2)c(S(=O)(=O)N2CCC(C)CC2)c1C | 904
Cc1nc(C(=O)Nc2ccc(Cl)cc2F)c(C)o1 | 1020

Compound | RP-LC retention time [s]
Cc1cccc2nnc(N3CCN(C(=O)c4ccc(Cl)cc4)CC3)n12 | 629
O=C(c1cccs1)N1CCC(n2c(C3CCCC3)nc3cccnc32)C1 (centres undefined) | 653
Cc1noc(C)c1S(=O)(=O)N1CCOC(c2ccccc2)C1 (centres undefined) | 882
S=c1cc(N2CCSCC2)[nH]cn1 | 602
Cn1c(CN2CCN(C(=O)Cc3ccc(Cl)cc3)CC2)nc2cc(C(=O)N3CCCC3)ccc21 | 646
c1ccc(-c2ccc(CNCc3ccc4c(c3)OCO4)o2)cc1 | 698
COc1ccccc1-c1nc(Cc2noc(-c3ccc(F)cc3)n2)c(C)o1 | 1040
O=C1NC2(CCN(C(=O)c3ccc(F)cc3)CC2)N=C1c1ccc(Cl)cc1 | 872
Cc1ccc(C(=O)N2CCN(S(=O)(=O)c3cc(-c4noc(C5CCC5)n4)cs3)CC2)s1 | 1060
CCOc1ccc(-c2ccc(N3CCN(C(=O)c4ccc5ncsc5c4)CC3)nn2)cc1 | 629
O=C(O)C1CC(=O)N(c2ccc3c(c2)OCO3)C1 (centres undefined) | 619
Cc1ccc(C(=O)NCc2ccc(-n3ccnc3)cc2)s1 | 602
Cc1cc(-n2nnc(C(=O)O)c2-c2ccccn2)ccc1F | 642
O=C(NCc1ccc(C(F)(F)F)cc1)c1cn2c(n1)CCCC2 | 646
Cn1nc(-c2nc(C3CC3)no2)c2c1CCN(S(=O)(=O)c1cccc(Cl)c1)C2 | 1000
Cc1nn(C)c(C)c1CCCN(C)C(=O)COc1ccc(NC(=O)C2CC2)cn1 | 605
CCNC(=O)c1sc(-c2ccc(C)cc2)nc1C | 850
CCN1CCN(CCCNC(=O)Cn2cnc3nc4c(cc3c2=O)CCCC4)CC1 | 554
O=C(NCC1CCN(C(=O)c2ccccc2F)CC1)c1ccc(Cl)s1 | 781
NC(=O)CS(=O)C(c1ccccc1)c1ccccc1 (centres undefined) | 710
COc1cc(C(=O)N2CCC(CC(=O)NC3CC3)CC2)cc(OC)c1OC | 647
Fc1ccc(-c2nnc(Cc3nc(-c4cccs4)no3)o2)cc1 | 926

The next lines start with the values.

RP-LC retention time [s] | Compound
721 | Cc1ccc(NS(=O)(=O)c2cc(-c3[nH]ncc3C(=O)N3CCOCC3)oc2C)c(C)c1
751 | Cc1nn(CC(=O)N2CCN(c3ccc(F)cc3)CC2)c(=O)c2noc(C)c12
1180 | Cc1ccccc1Cc1noc(-c2nc(-c3ccccc3F)no2)n1
725 | CCOc1ccccc1NC(=O)N1CCCC(Cn2c(C3CC3)nc3cccnc32)C1 (centres undefined)
627 | O=C(NCCN1CCOCC1)C1CCN(c2nccnc2Sc2ccccc2)CC1
881 | Cc1ccc(F)cc1NC(=O)c1cnc2c(c1)c(=O)n(C)c(=O)n2-c1ccccc1
1080 | COc1ccccc1NC(=O)N1CCCC1c1nc(-c2ccccc2C)no1 (centres undefined)
603 | Cn1cnc2cc(CNC(=O)c3ccc4cc[nH]c4c3)ccc21
712 | CCOc1ccc(OC(=O)C2CCN(c3nc4ccccc4[nH]3)CC2)cc1
1160 | CCc1ccc(Oc2cc(N3CCC(C(=O)Nc4ccc(C)c(C)c4)CC3)ncn2)cc1
876 | O=S(=O)(c1cccc2cccnc12)N1CCc2ccccc2C1
599 | O=C(NCc1ccccc1C(F)(F)F)c1ccc2c(c1)ncn2CCN1CCCC1
690 | COc1ccc(NC(=O)c2ccc3[nH]c4c(c3c2)CN(C(C)=O)CC4)c(OC)c1
850 | Cc1nn(C)c(C)c1S(=O)(=O)N1CCO[C@@H](COc2ccccn2)[C@@H]1c1ccccc1
714 | O=S(=O)(Nc1ccc(Cn2cncn2)cc1)c1ccc(F)cc1F
692 | Cc1ccc(-c2cn3cc(C(=O)NC(C)(C)C)ccc3n2)cc1
680 | O=C(NCCCN1CCc2ccccc2C1)c1nnc(-c2ccc(S(=O)(=O)N3CCCC3)cc2)o1
854 | COCC(=O)Oc1c(Sc2ccc(C)cc2)c(C)nn1-c1ccccc1
906 | CC(C)N1C(=O)c2cccnc2Sc2cc(NC(=O)Cc3ccccc3Cl)ccc21
1100 | O=C(Cn1cccc1-c1nnc(-c2ccccc2)o1)N1CCN(c2ccc(Cl)cc2)CC1
1200 | COc1ccc(CNC(=O)Nc2ccc(-c3nc(-c4cc(C)ccc4C)co3)cc2)cc1
579 | O=C(NCc1cccs1)c1cccc(N2CCNC(c3ccccc3)C2)n1 (centres undefined)
865 | COc1ccc(Nc2nc(C(=O)Nc3ccc4c(c3)OCCO4)cs2)c(OC)c1

RP-LC retention time [s] | Compound
892 | Cc1cccc(NS(=O)(=O)c2cn(C(C)C)c3ncccc23)c1
715 | CCOC(=O)N1CCN(C(=O)C2CCCN(c3ccc(-c4ccc(C)c(C)c4)nn3)C2)CC1 (centres undefined)
1200 | COc1ccc(-n2c(=O)c(C(=O)Nc3ccc4c(c3)OCO4)c(O)c3cccnc32)cc1
1090 | Cc1cc2occ(CN(C)CCN(C)Cc3cn(-c4cccc(C(F)(F)F)c4)c4ccccc34)c(=O)c2cc1C
1020 | CN(C(=O)C1=Cc2ccccc2OC=C1)c1ccccc1
853 | Cc1cccc(NC(=O)CN2C(=O)C3CCCCN3c3ccc(C(=O)N4CCCC4)cc32)c1 (centres undefined)
697 | CC(C)NC(=O)N1CCC2(CC1)C(=O)N(C)c1ccccc12
700 | O=C(CN1CCC2(CC1)N=C(c1ccc(Br)cc1)C(=O)N2)Nc1ccc(F)cc1
892 | O=C(NCC(=O)N1CCCc2ccccc21)c1ccc(Br)cc1
953 | CC(C)Cn1cc(S(=O)(=O)NCc2cccc(F)c2)c2cccnc21
693 | Cc1cccc(C)c1NC(=O)Cn1cnc2nc(N3CCC(C(=O)NC4CC4)CC3)sc2c1=O
653 | O=C(NCc1ccccn1)c1ccc2c(c1)N(C(=O)c1ccc(F)cc1)CC2
813 | Cn1nc(CNC(=O)c2ccc(F)c(F)c2)c2ccccc21
841 | CC1=C(c2ccccc2)S(=O)(=O)N=C1N1CCC(NC(=O)COc2ccccc2)CC1
668 | O=C(Nc1ccc2c(c1)OCCO2)c1cccc(N2CCNC(c3ccccc3)C2)n1 (centres undefined)
886 | O=C(Cn1ccc2ccc(N3CCOCC3)nc21)NCc1ccccc1Br
781 | CCOc1ccccc1C(=O)N1CCN(c2cc(-c3cccs3)[nH]n2)CC1
738 | Cc1ccc(NC(=O)Cn2c(C(C)C)nc3c(c2=O)CN(Cc2ccccc2)CC3)cc1C
899 | CC(C)c1ccc(NC(=O)C2CCCN(c3ncnc4c3nc3n4CCCCC3)C2)cc1 (centres undefined)
675 | Cc1cc(N2CCN(C)CC2)nc2ccc(NC(=O)C3CCC(C(C)(C)C)CC3)cc12 (centres undefined)
956 | Cc1ccc(NC(=O)C(C)Oc2ccc(F)cc2)cc1C (centres undefined)
777 | COc1ccc(-c2nc(N3CCCCC3)c3ccccc3n2)cc1
